Measured values from US20230159511A1, “TETRAHYDROISOQUINOLINE COMPOUNDS AS NRF2 ACTIVATORS” (C4X Discovery Limited, priority 2020, published 2023).
Where two headings read alike, the source gives them in different places.

What was measured:
[1] = tested on: NRF2 mediated gene NAD(P)H:quinone acceptor oxidoreductase 1 (NQO1) in BEAS-2B cells; assay: Beas2B NQO1 mRNA Cell Based Assay; parameters: species or system human; details: BEAS-2B cells, compound for 24 h, increase in NQO1 mRNA compared to vehicle (0.1% DMSO) control, read-out: EC50
Outline: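 BEAS-2B cells treated 24 h with compound; NQO1 mRNA measured by one-step TaqMan RT-PCR on crude lysates, normalised to beta actin by ΔΔCT. Fold increase over 0.1% DMSO vehicle; EC50 from four-parameter logistic fit.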

[2] = molecular target: T1, human KEAP1 (N-term, residues 321-609) (Homo sapiens, UniProt Q14145); assay: KEAP1 Kelch Fluorescence Polarization (FP) Assay; format: binding; details: inhibition of Kelch domain-NRF2 interaction; 2 nM FITC-labelled NRF2 peptide, 25 nM KEAP1, 1 h room temperature; compounds below 10 nM cannot be differentiated
T1 construct: human KEAP1 (N-term, residues 321-609)
T1 sequence (Q14145 321-609): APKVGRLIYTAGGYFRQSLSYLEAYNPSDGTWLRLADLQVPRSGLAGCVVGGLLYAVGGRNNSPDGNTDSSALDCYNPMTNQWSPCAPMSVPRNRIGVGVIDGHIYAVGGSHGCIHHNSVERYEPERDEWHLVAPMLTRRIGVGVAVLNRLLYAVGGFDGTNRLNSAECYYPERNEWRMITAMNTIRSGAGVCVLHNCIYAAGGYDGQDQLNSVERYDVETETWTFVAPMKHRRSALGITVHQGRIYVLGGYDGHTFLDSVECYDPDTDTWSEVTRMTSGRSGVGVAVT
Outline: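 Compounds in 12-point curves (top 10 μM) displaced 2 nM FITC-labelled NRF2 peptide from 25 nM KEAP1 residues 321-609 over 1 h at room temperature. Polarization read at 470/530 nm, window set by 50 μM unlabelled peptide; four-parameter fit gave IC50, floor 10 nM.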

SMILES | EC50 [1] | IC50 [2] | EC50 ([1]; Homo sapiens)
CNC(=O)[C@]1(C)CCCC[C@@H]1C(=O)N1CCc2c(Cl)ccc(OCc3nnn(C)c3C(F)F)c2[C@@H]1CN1CC2(CC2)CC1=O [Example 98, (1R,2S)-2-((R)-5-chloro-8-((5-(difluoromethyl)-1-methyl-1 H-1,2,3-triazol-4-yl)methoxy)-1-((6-oxo-5-azaspiro[2.4]heptan-5-yl)methyl)-1,2,3,4-tetrahydroisopuinoline-2-carbonyl)-N,1-dimethylcyclohexane-1-carboxamide] | 41 nM | 6 nM | –
CNC(=O)[C@@]1(C)CCCC[C@H]1C(=O)N1CCc2c(Cl)ccc(OCc3nnn(C)c3C3CC3)c2[C@H]1CN1CCCC1=O [Example 99, (1S,2R)-2-((S)-5-chloro-8-((5-cyclopropyl-1-methyl-1H-1,2,3-triazol-4-yl)methoxy)-1-((2-oxopyrrolidin-1-yl)methyl)-1,2,3,4-tetrahydroisoquinoline-2-carbonyl)-N,1-dimethylcyclohexane-1-carboxamide] | – | 7.4 nM | 109 nM
Cn1nnc(COc2ccc(Cl)c3c2[C@@H](CN2CC4(CC4)CC2=O)N(C(=O)[C@@H]2CCCC[C@]2(C)C(N)=O)CC3)c1C(F)F [Example 100, (1S,2R)-2-((S)-5-chloro-8-((5-(difluoromethyl)-1-methyl-1H-1,2,3-triazol-4-yl)methoxy)-1-((6-oxo-5-azaspiro[2.4]heptan-5-yl)methyl)-1,2,3,4-tetrahydroisoquinoline-2-carbonyl)-1-methylcyclohexane-1-carboxamide] | – | 6.4 nM | 26 nM
CNC(=O)[C@@]1(C)CCCC[C@H]1C(=O)N1CCc2c(Cl)ccc(OCc3nnn(C)c3C)c2[C@H]1CN1CC2(CC2)CC1=O [Example 101, (1S,2R)-2-((S)-5-chloro-8-((1,5-dimethyl-1H-1,2,3-triazol-4-yl)methoxy)-1-((6-oxo-5-azaspiro[2.4]heptan-5-yl)methyl)-1,2,3,4-tetrahydroisoquinoline-2-carbonyl)-N,1-dimethylcyclohexane-1-carboxamide] | – | 6.1 nM | 18 nM
CNC(=O)[C@@]1(C)CCCC[C@H]1C(=O)N1CCc2c(Cl)ccc(OCc3cn(C)nn3)c2[C@H]1CN1CC2(CC2)CC1=O [Example 102, (1S,2R)-2-((S)-5-chloro-8-((1-methyl-1H-1,2,3-triazol-4-yl)methoxy)-1-((6-oxo-5-azaspiro[2.4]heptan-5-yl)methyl)-1,2,3,4-tetrahydroisoquinoline-2-carbonyl)-N,1-dimethylcyclohexane-1-carboxamide] | – | 12 nM | 59 nM
CNC(=O)[C@@]1(C)CCCC[C@H]1C(=O)N1CCc2c(Cl)ccc(OCc3nnn(C)c3C3CC3)c2[C@H]1CN1CC2(CC2)CC1=O [Example 103, (1S,2R)-2-((S)-5-chloro-8-((5-cyclopropyl-1-methyl-1H-1,2,3-triazol-4-yl)methoxy)-1-((6-oxo-5-azaspiro[2.4]heptan-5-yl)methyl)-1,2,3,4-tetrahydroisoquinoline-2-carbonyl)-N,1-dimethylcyclohexane-1-carboxamide] | – | 7.1 nM | 57 nM
CNC(=O)[C@@]1(C)CCCC[C@H]1C(=O)N1CCc2c(Cl)ccc(OCc3cn(C)nn3)c2[C@H]1CN1C[C@H](C)CC1=O [Example 104, (1S,2R)-2-((S)-5-chloro-8-((1-methyl-1H-1,2,3-triazol-4-yl)methoxy)-1-(((R)-4-methyl-2-oxopyrrolidin-1-yl)methyl)-1,2,3,4-tetrahydroisoquinoline-2-carbonyl)-N,1-dimethylcyclohexane-1-carboxamide] | – | 11 nM | 784 nM
CNC(=O)[C@@]1(C)CCCC[C@H]1C(=O)N1CCc2c(Cl)ccc(OCc3nnn(C)c3COC)c2[C@H]1CN1C[C@H](C)CC1=O [Example 105, (1S,2R)-2-((S)-5-chloro-8-((5-(methoxymethyl)-1-methyl-1H-1,2,3-triazol-4-yl)methoxy)-1-(((R)-4-methyl-2-oxopyrrolidin-1-yl)methyl)-1,2,3,4-tetrahydroisoquinoline-2-carbonyl)-N,1-dimethylcyclohexane-1-carboxamide] | – | 17 nM | 790 nM
